# In US6849624B2, “Aromatic and heteroaromatic substituted amides” (Hoffmann-La Roche Inc., priority 2001, dated 2005):
# What was measured:
# human NK1 receptor [1] = molecular target: T1, human NK1 receptor (Homo sapiens, UniProt P25103); assay: substance P induced Ca2+ influx in CHO cells expressing recombinant human NK1 receptor (FLIPR); type: cell-based; conditions: increasing concentrations, CHO cells with recombinant human NK1 receptor
# T1 construct: expressed in transfected cells; host or cells: CHO cells (Semliki virus expression system)
# Source text: The activity in vitro was examined by studying its effect on substance P induced Ca^2+ influxes in CHO cells expressing the recombinant human NK1 receptor. In these cells, substance P causes a concentration dependent influx of Ca^2+ which can be measured using FLIPR technology.
# [2] = pharmacokinetic parameters in dogs; conditions: dog, in vivo; for Vd: read-out: volume of distribution
# Source text: (§1) The pharmacokinetic parameters of both compounds have been evaluated in both rats and dogs.
# [3] = pharmacokinetic parameters in rats; conditions: rat, in vivo; for bioavailability: po; for half-life: read-out: terminal half-life (converted); for Vd: read-out: volume of distribution
# Source text: as §1
# human NK1 receptor [4] = molecular target: T1, human NK1 receptor; assay: [3H]substance P binding to human NK1 receptor in transfected CHO cells; conditions: recombinant human NK1 receptor in CHO cells, [3H]substance P 0.6 nM; read-out: affinity (pKi) for the human NK1 receptor (converted)
# Protocol: The affinities of the compounds 2-(3,5-bis-trifluoromethyl-phenyl)-N-[6-(1,1-dioxo-1λ^6-thiomorpholin-4-yl)-4-o-tolyl-pyridin-3-yl]-N-methyl-isobutyramide and 2-(3,5-bis-trifluoromethyl-phenyl)-N-[6-(1,1-dioxo-1λ^6-thiomorpholin-4-yl)-4-(4-fluoro-2-methyl-phenyl)-pyridin-3-yl]-N-methyl-isobutyramide for the human NK1 receptor were evaluated in Chinese Hamster Ovary (CHO) cells transfected with the human NK1 receptor (using the Semliki Virus expression system) and radiolabelled with [^3H]substance P (final concentration 0.6 nM). Binding assays were performed in HEPES buffer (50 mM, pH 7.4) containing BSA (0.04%), leupeptin (8 μg/ml), MnCl2 (3 mM) and phosphoramidon (2 μM). Binding assays consisted of 250 μl of membrane suspension (1.25×10^5 cells/assay tube), […] of buffer of displacing agent and 125 μl of [^3H] substance P. Displacement curves were determined with at least seven concentrations of the compound. The assay tubes were incubated for 60 min at room temperature after which time the tube contents were rapidly filtered under vacuum through GF/C filters presoaked for 60 min with PEI (0.3%) with 2×2 ml washes of HEPES buffer (50 mM, pH 7.4). The radioactivity retained on the filters was measured by scintillation counting. All assays were performed in triplicate in at least 2 separate experiments. […]
# NK1 receptor = molecular target: T2, NK1 receptor (Meriones unguiculatus, UniProt Q5DUB1); assay: foot-tapping behavior induced in Gerbils by i.c.v. injection of an NK1 receptor agonist; type: in vivo; conditions: Gerbil; for dose calculated to inhibit 50% of the foot-tapping behavior: oral administration; for total plasma concentration required to completely block the foot-tapping behavior: total plasma level
# T2 construct: from tissue; host or cells: living gerbils (brain, i.c.v. agonist injection)
# Protocol: In vivo 2-(3,5-bis-trifluoromethyl-phenyl)-N-[6-(1,1-dioxo-1λ^6-thiomorpholin-4-yl)-4-o-tolyl-pyridin-3-yl]-N-methyl-isobutyramide antagonizes foot-tapping behavior induced in Gerbils with intracerebroventricular (i.c.v.) injections of an NK1 receptor agonist. The dose for this compound calculated to inhibit 50% of the foot-tapping behavior following oral administration was 0.8 mg/kg. […] Similarly, 2-(3,5-bis-trifluoromethyl-phenyl)-N-[6-(1,1-dioxo-1λ^6-thiomorpholin-4-yl)-4-(4-fluoro-2-methyl-phenyl)-pyridin-3-yl]-N-methyl-isobutyramide also antagonized NK1 agonist-induced foot-tapping in Gerbils. The dose for this compound calculated to inhibit 50% of the foot-tapping behavior following oral administration was 0.1 mg/kg. The total plasma levels that are required to completely antagonize this behavior are less than 10 ng/ml.
# T2 sequence (Q5DUB1 whole entry): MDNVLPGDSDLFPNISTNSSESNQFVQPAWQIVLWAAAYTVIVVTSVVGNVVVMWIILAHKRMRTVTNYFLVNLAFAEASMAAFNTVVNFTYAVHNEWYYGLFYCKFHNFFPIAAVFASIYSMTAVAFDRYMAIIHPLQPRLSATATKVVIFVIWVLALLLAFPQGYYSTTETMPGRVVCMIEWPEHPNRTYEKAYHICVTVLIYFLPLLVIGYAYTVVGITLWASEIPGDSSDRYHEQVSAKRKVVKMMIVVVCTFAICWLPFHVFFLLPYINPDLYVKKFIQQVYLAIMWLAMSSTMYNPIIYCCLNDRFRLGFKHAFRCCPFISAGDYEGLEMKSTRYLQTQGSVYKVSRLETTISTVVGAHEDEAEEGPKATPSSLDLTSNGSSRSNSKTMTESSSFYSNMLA
# T1 sequence (P25103 whole entry): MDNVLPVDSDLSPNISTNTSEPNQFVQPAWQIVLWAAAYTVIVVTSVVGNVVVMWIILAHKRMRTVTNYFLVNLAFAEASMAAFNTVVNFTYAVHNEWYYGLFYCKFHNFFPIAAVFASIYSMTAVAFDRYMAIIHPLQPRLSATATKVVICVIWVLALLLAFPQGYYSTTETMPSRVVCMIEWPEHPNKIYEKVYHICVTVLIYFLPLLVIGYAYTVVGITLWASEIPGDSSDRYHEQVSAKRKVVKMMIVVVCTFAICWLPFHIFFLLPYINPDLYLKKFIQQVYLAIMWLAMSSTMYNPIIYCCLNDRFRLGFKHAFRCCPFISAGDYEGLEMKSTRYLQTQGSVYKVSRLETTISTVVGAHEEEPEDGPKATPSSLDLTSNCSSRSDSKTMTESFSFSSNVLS
clearance [2] [mL/min/kg],half-life [2] [h],Vd [2] [L/kg],clearance [3] [mL/min/kg],bioavailability [3] [%],half-life [3] [h],Vd [3] [L/kg],Ki (human NK1 receptor [4]) [nM],dose calculated to inhibit 50% of the foot-tapping behavior (NK1 receptor) [mg/kg],total plasma concentration required to completely block the foot-tapping behavior (NK1 receptor),melting point [°C],SMILES,effect on substance P induced Ca2+ influx (human NK1 receptor [1])
1.4,56,1.5,0.3 to 1.2,61,21,0.7,0.316,0.1,less than 10 ng/ml,–,"Cc1cc(F)ccc1-c1cc(N2CCS(=O)(=O)CC2)ncc1N(C)C(=O)C(C)(C)c1cc(C(F)(F)F)cc(C(F)(F)F)c1 [2-(3,5-Bis-trifluoromethyl-phenyl)-N-[6-(1,1-dioxo-1λ^6-thiomorpholin-4-yl)-4-(4-fluoro-2-methyl-phenyl)-pyridin-3-yl]-N-methyl-isobutyramide]",inhibited the substance P induced Ca^2+ influx
5,8,4,4.7,18,9,4,1.26,0.8,10 ng/mL,200 to 201,"Cc1ccccc1-c1cc(N2CCS(=O)(=O)CC2)ncc1N(C)C(=O)C(C)(C)c1cc(C(F)(F)F)cc(C(F)(F)F)c1 [2-(3,5-Bis-trifluoromethyl-phenyl)-N-[6-(1,1-dioxo-1λ^6-thiomorpholin-4-yl)-4-o-tolyl-pyridin-3-yl]-N-methyl-isobutyramide]",inhibited the substance P induced Ca^2+ influx
